The record followed here is article doi:10.1101/2024.08.13.607785v1 (biorxiv, 2024).

SMILES strings stand for the structures. Read-outs that look alike come from different tables or passages of the source.

Test in all cases: biochemical
Parameters in all cases: species or system human cell line lysate

For experiment [1], the target named is Adenylate kinase isoenzyme 6 ; AK6 ; Q9Y3D8 (Homo sapiens, UniProt Q9Y3D8).
For experiment [2], the target named is Dual specificity testis-specific protein kinase 1 ; TESK1 ; Q15569 (Homo sapiens, UniProt Q15569).
Experiment [3] has as its target Isoform 3 of Casein kinase I isoform alpha ; CSNK1A1 ; P48729-3 (Homo sapiens, UniProt P48729).
Experiment [4] deals with Isoform 4 of Serine/threonine-protein kinase Nek2 ; NEK2 ; P51955-4 (Homo sapiens, UniProt P51955).
Chain of Isoform 4 of Serine/threonine-protein kinase Nek2 ; NEK2 ; P51955-4 (P51955 whole entry, canonical isoform, one chain of several): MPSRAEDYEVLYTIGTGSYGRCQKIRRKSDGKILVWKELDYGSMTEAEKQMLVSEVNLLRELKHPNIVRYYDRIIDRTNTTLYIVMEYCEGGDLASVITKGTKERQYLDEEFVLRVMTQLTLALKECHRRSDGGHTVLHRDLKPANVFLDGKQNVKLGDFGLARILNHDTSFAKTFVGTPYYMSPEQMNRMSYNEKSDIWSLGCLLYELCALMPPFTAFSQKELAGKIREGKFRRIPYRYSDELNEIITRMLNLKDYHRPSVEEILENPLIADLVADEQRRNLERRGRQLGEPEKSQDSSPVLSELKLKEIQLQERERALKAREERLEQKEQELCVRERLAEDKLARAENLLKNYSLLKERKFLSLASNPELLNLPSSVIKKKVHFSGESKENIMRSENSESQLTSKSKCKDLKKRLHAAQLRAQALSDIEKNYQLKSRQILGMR
For experiment [5], the target named is Isoform CSBP1 of Mitogen-activated protein kinase 14 ; MAPK14 ; Q16539-2 (Homo sapiens, UniProt Q16539).
For experiment [6], the target named is Mitogen-activated protein kinase 6 ; MAPK6 ; Q16659 (Homo sapiens, UniProt Q16659).
For experiment [7], the target named is Protein kinase C delta type ; PRKCD ; Q05655 (Homo sapiens, UniProt Q05655).
Experiment [8] has as its target Protein kinase C iota type ; PRKCI ; P41743 (Homo sapiens, UniProt P41743).
Experiment [9] deals with Protein-tyrosine kinase 2-beta ; PTK2B ; Q14289 (Homo sapiens, UniProt Q14289).
The target in experiment [10] is RAC-beta serine/threonine-protein kinase ; AKT2 ; P31751 (Homo sapiens, UniProt P31751).
Chain of RAC-beta serine/threonine-protein kinase ; AKT2 ; P31751 (P31751 whole entry, one chain of several): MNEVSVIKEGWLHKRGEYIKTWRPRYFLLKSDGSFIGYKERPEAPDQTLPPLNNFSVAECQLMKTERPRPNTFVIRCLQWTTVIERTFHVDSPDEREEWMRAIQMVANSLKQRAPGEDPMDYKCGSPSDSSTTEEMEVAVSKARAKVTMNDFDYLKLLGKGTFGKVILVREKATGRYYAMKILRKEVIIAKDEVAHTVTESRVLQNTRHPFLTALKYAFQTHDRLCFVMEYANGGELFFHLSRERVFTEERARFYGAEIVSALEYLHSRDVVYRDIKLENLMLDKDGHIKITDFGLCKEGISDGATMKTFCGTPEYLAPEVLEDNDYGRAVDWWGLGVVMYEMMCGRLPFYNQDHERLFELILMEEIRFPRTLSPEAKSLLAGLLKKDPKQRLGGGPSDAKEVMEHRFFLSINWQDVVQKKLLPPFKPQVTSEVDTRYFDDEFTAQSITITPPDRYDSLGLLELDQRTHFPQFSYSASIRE
The target in experiment [11] is Ribosomal protein S6 kinase alpha-3 ; RPS6KA3 ; P51812 (Homo sapiens, UniProt P51812).
Chain of Ribosomal protein S6 kinase alpha-3 ; RPS6KA3 ; P51812 (P51812 whole entry): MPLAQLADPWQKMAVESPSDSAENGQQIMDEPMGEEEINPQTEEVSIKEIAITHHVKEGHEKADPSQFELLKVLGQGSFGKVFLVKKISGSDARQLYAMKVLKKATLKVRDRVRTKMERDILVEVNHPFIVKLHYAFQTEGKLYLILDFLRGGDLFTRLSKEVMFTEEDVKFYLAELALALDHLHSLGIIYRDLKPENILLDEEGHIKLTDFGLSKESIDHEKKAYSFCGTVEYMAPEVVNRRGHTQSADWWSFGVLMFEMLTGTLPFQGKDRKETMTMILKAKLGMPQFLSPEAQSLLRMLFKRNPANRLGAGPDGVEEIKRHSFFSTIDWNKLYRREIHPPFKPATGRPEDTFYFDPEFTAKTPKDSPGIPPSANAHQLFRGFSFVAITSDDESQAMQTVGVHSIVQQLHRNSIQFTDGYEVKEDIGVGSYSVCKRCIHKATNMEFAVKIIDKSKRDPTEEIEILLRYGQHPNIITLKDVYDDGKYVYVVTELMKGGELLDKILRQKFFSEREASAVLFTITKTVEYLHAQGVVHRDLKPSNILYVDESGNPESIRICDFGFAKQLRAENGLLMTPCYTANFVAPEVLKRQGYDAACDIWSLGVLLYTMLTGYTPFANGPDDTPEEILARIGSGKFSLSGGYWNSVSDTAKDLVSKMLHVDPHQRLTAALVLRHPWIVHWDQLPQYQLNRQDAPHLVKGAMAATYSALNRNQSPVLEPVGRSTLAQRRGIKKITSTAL
Experiment [12] has as its target Ribosomal protein S6 kinase alpha-4 ; RPS6KA4 ; O75676 (Homo sapiens, UniProt O75676).
Experiment [13] has as its target Serine/threonine-protein kinase 16 ; STK16 ; O75716 (Homo sapiens, UniProt O75716).
In experiment [14] the target is Serine/threonine-protein kinase N1 ; PKN1 ; Q16512 (Homo sapiens, UniProt Q16512).
Experiment [15] deals with Serine/threonine-protein kinase TAO2 ; TAOK2 ; Q9UL54 (Homo sapiens, UniProt Q9UL54).
Experiment [16] has as its target Serine/threonine-protein kinase TAO3 ; TAOK3 ; Q9H2K8 (Homo sapiens, UniProt Q9H2K8).
Experiment [17] has as its target Serine/threonine-protein kinase TBK1 ; TBK1 ; Q9UHD2 (Homo sapiens, UniProt Q9UHD2).
The target in experiment [18] is Tyrosine-protein kinase FRK ; FRK ; P42685 (Homo sapiens, UniProt P42685).
Chain of Tyrosine-protein kinase FRK ; FRK ; P42685 (P42685 whole entry): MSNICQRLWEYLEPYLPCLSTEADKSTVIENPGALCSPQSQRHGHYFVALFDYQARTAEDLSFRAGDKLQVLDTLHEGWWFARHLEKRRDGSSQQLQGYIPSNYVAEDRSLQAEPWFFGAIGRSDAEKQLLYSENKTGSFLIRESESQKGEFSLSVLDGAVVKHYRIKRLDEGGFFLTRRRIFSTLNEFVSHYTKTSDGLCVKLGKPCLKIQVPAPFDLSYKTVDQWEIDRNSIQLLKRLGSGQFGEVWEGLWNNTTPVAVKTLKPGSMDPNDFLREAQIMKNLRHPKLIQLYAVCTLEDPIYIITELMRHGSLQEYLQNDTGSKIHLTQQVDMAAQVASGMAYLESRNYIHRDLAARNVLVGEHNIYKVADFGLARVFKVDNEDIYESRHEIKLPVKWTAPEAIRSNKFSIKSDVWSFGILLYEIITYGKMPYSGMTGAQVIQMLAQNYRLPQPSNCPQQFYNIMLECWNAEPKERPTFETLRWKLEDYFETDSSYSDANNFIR
Experiment [19] concerns the target Vascular endothelial growth factor receptor 3 ; FLT4 ; P35916 (Homo sapiens, UniProt P35916).
In experiment [20] the target is Wee1-like protein kinase ; WEE1 ; P30291 (Homo sapiens, UniProt P30291).
Setting [21] is: read-out: BAY-1143572 (10 µM) / %Intensity relative to DMSO.
The mark [22] stands for this setting: read-out: BAY-1251152 (10 µM) / %Intensity relative to DMSO.

Chain of Protein kinase C iota type ; PRKCI ; P41743 (P41743 whole entry): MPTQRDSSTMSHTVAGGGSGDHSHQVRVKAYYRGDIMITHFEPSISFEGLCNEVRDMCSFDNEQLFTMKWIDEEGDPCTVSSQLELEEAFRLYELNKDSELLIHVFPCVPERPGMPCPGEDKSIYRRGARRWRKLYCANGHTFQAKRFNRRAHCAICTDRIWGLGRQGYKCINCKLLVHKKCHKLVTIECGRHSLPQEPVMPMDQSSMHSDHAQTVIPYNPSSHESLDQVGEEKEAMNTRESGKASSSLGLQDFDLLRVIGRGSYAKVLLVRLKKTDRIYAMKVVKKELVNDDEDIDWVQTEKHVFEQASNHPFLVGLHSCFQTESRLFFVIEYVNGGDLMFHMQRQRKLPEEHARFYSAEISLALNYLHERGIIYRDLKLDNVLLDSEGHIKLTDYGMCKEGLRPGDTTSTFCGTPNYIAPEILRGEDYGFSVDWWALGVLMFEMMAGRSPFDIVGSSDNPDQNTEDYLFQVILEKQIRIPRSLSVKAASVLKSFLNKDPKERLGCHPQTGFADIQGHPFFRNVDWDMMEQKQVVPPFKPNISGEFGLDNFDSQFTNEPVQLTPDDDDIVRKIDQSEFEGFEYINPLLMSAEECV
Chain of Vascular endothelial growth factor receptor 3 ; FLT4 ; P35916 (P35916 whole entry): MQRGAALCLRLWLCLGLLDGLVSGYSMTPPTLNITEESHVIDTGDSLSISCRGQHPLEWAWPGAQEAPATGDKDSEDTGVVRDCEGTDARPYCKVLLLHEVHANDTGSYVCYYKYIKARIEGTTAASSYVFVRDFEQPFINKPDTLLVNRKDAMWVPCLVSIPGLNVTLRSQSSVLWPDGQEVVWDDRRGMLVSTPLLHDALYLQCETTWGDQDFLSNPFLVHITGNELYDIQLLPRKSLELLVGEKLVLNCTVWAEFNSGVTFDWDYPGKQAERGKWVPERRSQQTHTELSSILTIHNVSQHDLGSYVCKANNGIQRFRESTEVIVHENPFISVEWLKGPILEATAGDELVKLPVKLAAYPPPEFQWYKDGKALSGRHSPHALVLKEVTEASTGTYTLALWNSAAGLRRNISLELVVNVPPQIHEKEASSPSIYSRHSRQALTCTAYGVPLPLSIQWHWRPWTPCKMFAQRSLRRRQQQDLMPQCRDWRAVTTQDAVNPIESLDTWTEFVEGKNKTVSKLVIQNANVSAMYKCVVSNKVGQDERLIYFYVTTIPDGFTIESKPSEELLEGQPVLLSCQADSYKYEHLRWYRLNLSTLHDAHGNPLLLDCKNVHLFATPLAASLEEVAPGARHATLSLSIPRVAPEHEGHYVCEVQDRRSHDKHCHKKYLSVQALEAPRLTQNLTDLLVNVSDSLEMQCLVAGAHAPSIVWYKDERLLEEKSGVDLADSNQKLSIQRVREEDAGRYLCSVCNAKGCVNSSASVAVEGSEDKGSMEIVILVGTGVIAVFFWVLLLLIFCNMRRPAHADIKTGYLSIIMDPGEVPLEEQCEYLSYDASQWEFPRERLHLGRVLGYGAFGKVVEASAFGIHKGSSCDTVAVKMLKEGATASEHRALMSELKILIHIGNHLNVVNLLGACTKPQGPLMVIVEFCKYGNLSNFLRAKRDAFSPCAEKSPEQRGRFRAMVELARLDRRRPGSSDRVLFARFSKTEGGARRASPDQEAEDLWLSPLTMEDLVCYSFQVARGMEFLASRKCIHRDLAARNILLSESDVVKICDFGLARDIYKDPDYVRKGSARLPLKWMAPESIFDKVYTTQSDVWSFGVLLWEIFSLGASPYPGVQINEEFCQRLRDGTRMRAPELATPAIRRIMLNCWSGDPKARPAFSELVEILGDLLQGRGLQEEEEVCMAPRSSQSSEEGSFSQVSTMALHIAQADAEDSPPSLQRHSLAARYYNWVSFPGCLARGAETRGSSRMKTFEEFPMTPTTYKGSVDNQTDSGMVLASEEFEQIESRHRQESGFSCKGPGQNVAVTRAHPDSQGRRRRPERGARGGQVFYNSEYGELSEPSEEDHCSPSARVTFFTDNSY
Chain of Serine/threonine-protein kinase 16 ; STK16 ; O75716 (O75716 whole entry, one chain of several): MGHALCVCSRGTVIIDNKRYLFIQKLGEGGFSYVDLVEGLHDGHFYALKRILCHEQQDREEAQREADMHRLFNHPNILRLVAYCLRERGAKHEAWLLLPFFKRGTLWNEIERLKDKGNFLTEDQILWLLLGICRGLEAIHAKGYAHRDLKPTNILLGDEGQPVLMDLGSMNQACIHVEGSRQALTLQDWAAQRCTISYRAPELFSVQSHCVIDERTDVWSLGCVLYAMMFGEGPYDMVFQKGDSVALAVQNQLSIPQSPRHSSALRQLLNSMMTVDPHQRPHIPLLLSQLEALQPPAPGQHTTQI
Chain of Adenylate kinase isoenzyme 6 ; AK6 ; Q9Y3D8 (Q9Y3D8 whole entry): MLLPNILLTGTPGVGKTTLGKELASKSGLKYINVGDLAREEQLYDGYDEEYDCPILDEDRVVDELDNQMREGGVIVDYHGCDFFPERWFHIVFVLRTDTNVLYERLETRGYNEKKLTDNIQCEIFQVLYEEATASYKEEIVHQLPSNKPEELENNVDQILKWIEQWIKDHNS
Chain of Isoform 3 of Casein kinase I isoform alpha ; CSNK1A1 ; P48729-3 (P48729 whole entry, canonical isoform): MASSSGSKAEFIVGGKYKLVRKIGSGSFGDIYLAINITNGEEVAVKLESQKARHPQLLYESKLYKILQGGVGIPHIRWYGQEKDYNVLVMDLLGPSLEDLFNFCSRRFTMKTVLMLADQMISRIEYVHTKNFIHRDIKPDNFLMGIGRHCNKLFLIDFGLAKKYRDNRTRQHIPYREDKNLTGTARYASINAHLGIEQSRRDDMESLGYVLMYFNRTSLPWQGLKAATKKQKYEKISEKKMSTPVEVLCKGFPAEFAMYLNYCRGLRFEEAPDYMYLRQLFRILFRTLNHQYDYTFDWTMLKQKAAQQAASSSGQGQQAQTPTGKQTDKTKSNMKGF

In the case of `COc1cc(F)ccc1-c1ncnc(Nc2cccc(C[S@](C)(=N)=O)c2)n1` [BAY-1143572], the remaining activity at 10 µM in experiment [1] (setting [21]) amounted to 34.2%; in experiment [2] (setting [21]) it was 109%; in experiment [3] (setting [21]), 115%; in experiment [4] (setting [21]), 115%; in [5] (setting [21]) it was 133%; in experiment [6] (setting [21]) it was 106%. In addition, the remaining activity at 10 µM in [7] (setting [21]) is 97.1%; in experiment [8] (setting [21]) it was 108%; in experiment [9] (setting [21]), 217%; in experiment [10] (setting [21]), 117%; in [11] (setting [21]), 115%; in experiment [12] (setting [21]), 119%. The remaining activity at 10 µM was 64.2% in experiment [13] (setting [21]); 156% in experiment [14] (setting [21]); 80.7% in [15] (setting [21]); 111% in experiment [16] (setting [21]); 94.7% in [17] (setting [21]); 125% in [18] (setting [21]). In addition, the remaining activity at 10 µM in experiment [19] (setting [21]) was determined as 115%; in [20] (setting [21]), 101%.

On to `COc1cc(F)ccc1-c1cc(Nc2cc(CS(C)(=N)=O)ccn2)ncc1F` (stereo not shown) [BAY-1251152], for which the remaining activity at 10 µM in experiment [1] (setting [22]) worked out at 47.6%; in [2] (setting [22]) it was 104%; in [3] (setting [22]), 111%; in [4] (setting [22]), 114%; in experiment [5] (setting [22]) it was 120%; in experiment [6] (setting [22]), 142%. Also, the remaining activity at 10 µM came out at 97.3% in experiment [7] (setting [22]); 99.3% in experiment [8] (setting [22]); 176% in experiment [9] (setting [22]); 119% in [10] (setting [22]); 107% in experiment [11] (setting [22]); 104% in experiment [12] (setting [22]). In addition, the remaining activity at 10 µM in experiment [13] (setting [22]) came out at 61.5%; in [14] (setting [22]) it was 137%; in [15] (setting [22]), 56%; in [16] (setting [22]) it was 84%; in [17] (setting [22]), 94%; in [18] (setting [22]) it was 123%. Also, the figures for the remaining activity at 10 µM in experiment [19] (setting [22]) and in [20] (setting [22]) were 104% and 102%, respectively.
